Measured values from patent US20080111109A1, “ORGANIC-ELECTROLUMINESCENCE-MATERIAL-CONTAINING SOLUTION, METHOD FOR FORMING THIN FILM OF ORGANIC ELECTROLUMINESCENCE MATERIAL, THIN FILM OF ORGANIC ELECTROLUMINESCENCE MATERIAL AND ORGANIC ELECTROLUMINESCENCE DEVICE” (Idemitsu Kosan Co., Ltd., priority 2006, published 2008).

Test: Solubility in the solvent of a naphthacene compound with para-bonded aromatic substituents
Type: physicochemical
Conditions: solvent not specified (aromatic, halogen type or ether type solvent)

In the case of c1ccc(-c2ccc(-c3c4ccccc4c(-c4ccc(-c5ccccc5)cc4-c4ccccc4)c4cc5ccccc5cc34)c(-c3ccccc3)c2)cc1, the solubility is reported as at most 0.1 wt %.
